System: 889142-216-R-J1-PDC complex spheroid viability
Experiment: Anticancer human tumor 889142-216-R-J1-PDC patient-derived bladder carcinoma cell line growth inhibition [POLQ]
Conditions: for IC50: curve of first compound; for viability, T/C: stronger effect = lower value
Method in brief: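 PDC + HUVEC + MSC complex spheroids; POLQ inhibitors ± partner drugs; top conc. at/near clinical Cmax, else 10 microM (SN-38 1 microM), half-log dilutions; 37 degrees C, 5% CO2.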

[1] = second compound 0.0316 µM, first compound 0.0316 µM
[2] = second compound 0.0316 µM, first compound 0.1 µM
[3] = second compound 0.0316 µM, first compound 0.316 µM
[4] = second compound 0.0316 µM, first compound 1 µM
[5] = second compound 0.0316 µM, first compound 3.16 µM
[6] = second compound 0.0316 µM, first compound 10 µM
[7] = second compound 0.1 µM, first compound 0.0316 µM
[8] = second compound 0.1 µM, first compound 0.1 µM
[9] = second compound 0.1 µM, first compound 0.316 µM
[10] = second compound 0.1 µM, first compound 1 µM
[11] = second compound 0.1 µM, first compound 3.16 µM
[12] = second compound 0.1 µM, first compound 10 µM
[13] = second compound 0.316 µM, first compound 0.0316 µM
[14] = second compound 0.316 µM, first compound 0.1 µM
[15] = second compound 0.316 µM, first compound 0.316 µM
[16] = second compound 0.316 µM, first compound 1 µM
[17] = second compound 0.316 µM, first compound 3.16 µM
[18] = second compound 0.316 µM, first compound 10 µM
[19] = second compound 1 µM, first compound 0.0316 µM
[20] = second compound 1 µM, first compound 0.1 µM
[21] = second compound 1 µM, first compound 0.316 µM
[22] = second compound 1 µM, first compound 1 µM
[23] = second compound 1 µM, first compound 3.16 µM
[24] = second compound 1 µM, first compound 10 µM
[25] = second compound 3.16 µM, first compound 0.0316 µM
[26] = second compound 3.16 µM, first compound 0.1 µM
[27] = second compound 3.16 µM, first compound 0.316 µM
[28] = second compound 3.16 µM, first compound 1 µM
[29] = second compound 3.16 µM, first compound 3.16 µM
[30] = second compound 3.16 µM, first compound 10 µM
[31] = second compound 10 µM, first compound 0.0316 µM
[32] = second compound 10 µM, first compound 0.1 µM
[33] = second compound 10 µM, first compound 0.316 µM
[34] = second compound 10 µM, first compound 1 µM
[35] = second compound 10 µM, first compound 3.16 µM
[36] = second compound 10 µM, first compound 10 µM
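Also: spheroids exposed to compounds for seven days.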
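For viability, T/C in this document: 100% = DMSO vehicle control viability.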

O=C(Nc1ccc(O)c(NS(=O)(=O)c2ccc(F)cc2)c1)c1ccc(-c2ccccc2)cc1 + COC1C(OC(N)=O)C(O)C(Oc2ccc3c(O)c(NC(=O)c4ccc(O)c(CC=C(C)C)c4)c(=O)oc3c2C)OC1(C)C
IC50 (second compound 0.0316 µM): > 10 µM | IC50 (second compound 0.1 µM): > 10 µM | IC50 (second compound 0.316 µM): > 10 µM | IC50 (second compound 1 µM): > 10 µM | IC50 (second compound 3.16 µM): > 10 µM | IC50 (second compound 10 µM): > 10 µM | viability, T/C [1]: 122% | viability, T/C [2]: 98.7% | viability, T/C [3]: 115% | viability, T/C [4]: 116% | viability, T/C [5]: 116% | viability, T/C [6]: 67.2% | viability, T/C [7]: 93.9% | viability, T/C [8]: 90.7% | viability, T/C [9]: 92.6% | viability, T/C [10]: 108% | viability, T/C [11]: 111% | viability, T/C [12]: 64.7% | viability, T/C [13]: 128% | viability, T/C [14]: 110% | viability, T/C [15]: 99.9% | viability, T/C [16]: 125% | viability, T/C [17]: 139% | viability, T/C [18]: 73.8% | viability, T/C [19]: 103% | viability, T/C [20]: 115% | viability, T/C [21]: 114% | viability, T/C [22]: 107% | viability, T/C [23]: 105% | viability, T/C [24]: 75.9% | viability, T/C [25]: 87.7% | viability, T/C [26]: 108% | viability, T/C [27]: 96.2% | viability, T/C [28]: 117% | viability, T/C [29]: 126% | viability, T/C [30]: 73.6% | viability, T/C [31]: 99.8% | viability, T/C [32]: 103% | viability, T/C [33]: 101% | viability, T/C [34]: 118% | viability, T/C [35]: 107% | viability, T/C [36]: 63.7%

C#Cc1c(F)ccc2cc(O)cc(-c3ncc4c(N5CC6CCC(C5)N6)nc(OCC56CCCN5CC(F)C6)nc4c3F)c12 (stereo not given) + Cc1cccc(N(C)C(=O)C2C(O)CCN2c2nc(C)cc(C(F)(F)F)c2C#N)c1
IC50 (second compound 0.0316 µM): 6.08 µM | IC50 (second compound 0.1 µM): 5.01 µM | IC50 (second compound 0.316 µM): 5.26 µM | IC50 (second compound 1 µM): 7.76 µM | IC50 (second compound 3.16 µM): 4.97 µM | IC50 (second compound 10 µM): 5.01 µM | viability, T/C [1]: 106% | viability, T/C [2]: 87.8% | viability, T/C [3]: 82.6% | viability, T/C [4]: 103% | viability, T/C [5]: 74.8% | viability, T/C [6]: 31.1% | viability, T/C [7]: 104% | viability, T/C [8]: 100% | viability, T/C [9]: 78.3% | viability, T/C [10]: 97.8% | viability, T/C [11]: 62% | viability, T/C [12]: 31.9% | viability, T/C [13]: 90.2% | viability, T/C [14]: 81.3% | viability, T/C [15]: 66.4% | viability, T/C [16]: 93.7% | viability, T/C [17]: 60.8% | viability, T/C [18]: 36.3% | viability, T/C [19]: 88.6% | viability, T/C [20]: 69.1% | viability, T/C [21]: 94% | viability, T/C [22]: 71.2% | viability, T/C [23]: 108% | viability, T/C [24]: 39.7% | viability, T/C [25]: 98.2% | viability, T/C [26]: 85.2% | viability, T/C [27]: 64.8% | viability, T/C [28]: 74% | viability, T/C [29]: 72.5% | viability, T/C [30]: 30.5% | viability, T/C [31]: 79.3% | viability, T/C [32]: 71.4% | viability, T/C [33]: 65.8% | viability, T/C [34]: 69.7% | viability, T/C [35]: 73% | viability, T/C [36]: 17.2%

O=c1[nH]cc(F)c(=O)[nH]1 + Cc1cccc(N(C)C(=O)C2C(O)CCN2c2nc(C)cc(C(F)(F)F)c2C#N)c1
IC50 (second compound 0.0316 µM): > 10 µM | IC50 (second compound 0.1 µM): > 10 µM | IC50 (second compound 0.316 µM): > 10 µM | IC50 (second compound 1 µM): > 10 µM | IC50 (second compound 3.16 µM): > 10 µM | IC50 (second compound 10 µM): > 10 µM | viability, T/C [1]: 96% | viability, T/C [2]: 85.2% | viability, T/C [3]: 81.1% | viability, T/C [4]: 94% | viability, T/C [5]: 63.6% | viability, T/C [6]: 61% | viability, T/C [7]: 102% | viability, T/C [8]: 84.3% | viability, T/C [9]: 75.9% | viability, T/C [10]: 54.4% | viability, T/C [11]: 63.7% | viability, T/C [12]: 65.1% | viability, T/C [13]: 109% | viability, T/C [14]: 99.3% | viability, T/C [15]: 73.6% | viability, T/C [16]: 71.3% | viability, T/C [17]: 79.1% | viability, T/C [18]: 77.7% | viability, T/C [19]: 93.4% | viability, T/C [20]: 93.2% | viability, T/C [21]: 74.3% | viability, T/C [22]: 72% | viability, T/C [23]: 71.8% | viability, T/C [24]: 73.1% | viability, T/C [25]: 80.8% | viability, T/C [26]: 87.6% | viability, T/C [27]: 80.3% | viability, T/C [28]: 88.9% | viability, T/C [29]: 83% | viability, T/C [30]: 65.9% | viability, T/C [31]: 71% | viability, T/C [32]: 79.9% | viability, T/C [33]: 83.3% | viability, T/C [34]: 64.1% | viability, T/C [35]: 70.3% | viability, T/C [36]: 65%

CNCc1ccc(-c2[nH]c3cc(F)cc4c3c2CCNC4=O)cc1 + COC1C(OC(N)=O)C(O)C(Oc2ccc3c(O)c(NC(=O)c4ccc(O)c(CC=C(C)C)c4)c(=O)oc3c2C)OC1(C)C
IC50 (second compound 0.0316 µM): > 10 µM | IC50 (second compound 0.1 µM): > 10 µM | IC50 (second compound 0.316 µM): > 10 µM | IC50 (second compound 1 µM): > 10 µM | IC50 (second compound 3.16 µM): > 10 µM | IC50 (second compound 10 µM): > 10 µM | viability, T/C [1]: 120% | viability, T/C [2]: 97.3% | viability, T/C [3]: 100% | viability, T/C [4]: 105% | viability, T/C [5]: 97.2% | viability, T/C [6]: 79.5% | viability, T/C [7]: 109% | viability, T/C [8]: 107% | viability, T/C [9]: 96.4% | viability, T/C [10]: 93.2% | viability, T/C [11]: 98.1% | viability, T/C [12]: 85.4% | viability, T/C [13]: 103% | viability, T/C [14]: 98.6% | viability, T/C [15]: 90.6% | viability, T/C [16]: 122% | viability, T/C [17]: 97.6% | viability, T/C [18]: 58.2% | viability, T/C [19]: 96.8% | viability, T/C [20]: 92.6% | viability, T/C [21]: 103% | viability, T/C [22]: 94.3% | viability, T/C [23]: 82.6% | viability, T/C [24]: 84.2% | viability, T/C [25]: 89.2% | viability, T/C [26]: 106% | viability, T/C [27]: 92% | viability, T/C [28]: 83.9% | viability, T/C [29]: 93.2% | viability, T/C [30]: 89.3% | viability, T/C [31]: 115% | viability, T/C [32]: 98.2% | viability, T/C [33]: 88.5% | viability, T/C [34]: 83.4% | viability, T/C [35]: 104% | viability, T/C [36]: 84%

CC(C)n1c(=O)n(C)c2cnc3cc(F)c(-c4ccc(OCCCN5CCCCC5)nc4)cc3c21 + COC1C(OC(N)=O)C(O)C(Oc2ccc3c(O)c(NC(=O)c4ccc(O)c(CC=C(C)C)c4)c(=O)oc3c2C)OC1(C)C
IC50 (second compound 0.0316 µM): > 10 µM | IC50 (second compound 0.1 µM): 6.09 µM | IC50 (second compound 0.316 µM): > 10 µM | IC50 (second compound 1 µM): > 10 µM | IC50 (second compound 3.16 µM): 8.69 µM | IC50 (second compound 10 µM): > 10 µM | viability, T/C [1]: 91.2% | viability, T/C [2]: 86.3% | viability, T/C [3]: 78.3% | viability, T/C [4]: 86.5% | viability, T/C [5]: 54.6% | viability, T/C [6]: 52.8% | viability, T/C [7]: 88.6% | viability, T/C [8]: 105% | viability, T/C [9]: 81.7% | viability, T/C [10]: 85.8% | viability, T/C [11]: 60.4% | viability, T/C [12]: 41.5% | viability, T/C [13]: 105% | viability, T/C [14]: 71.1% | viability, T/C [15]: 85.8% | viability, T/C [16]: 76.8% | viability, T/C [17]: 58.9% | viability, T/C [18]: 56.8% | viability, T/C [19]: 113% | viability, T/C [20]: 86.2% | viability, T/C [21]: 80.4% | viability, T/C [22]: 71.2% | viability, T/C [23]: 67.1% | viability, T/C [24]: 52.2% | viability, T/C [25]: 92.4% | viability, T/C [26]: 106% | viability, T/C [27]: 88.7% | viability, T/C [28]: 71.4% | viability, T/C [29]: 61.6% | viability, T/C [30]: 46.9% | viability, T/C [31]: 94.4% | viability, T/C [32]: 92.8% | viability, T/C [33]: 81.3% | viability, T/C [34]: 88% | viability, T/C [35]: 65.9% | viability, T/C [36]: 53.7%
